# Measured values as given in patent publication US11540542B2, “Taste modulating aldehydes” (TAKASAGO INTERNATIONAL CORPORATION, priority 2016, dated 2023).
# Test system: trained experts
# Test: Monkfruit juice beverage taste comparison, trained experts
# Conditions: 0.000001% cut of 1% 2,6-nonadienal in ethyl acetate, used at 0.10% in Monkfruit beverage (juice concentrate 0.15%); three trained experts
# Procedure: A taste comparison was conducted by combining and mixing 0.000001% cut of 1% 2,6-nonadienal (I % in ethanol) in ethyl acetate and used that dilution at 0.10% in a Monkfruit beverage in water, wherein Monkfruit juice concentrate was present at 0.15%. Three trained experts evaluated the combination against a control of Monkfruit juice without the taste modulation compound.
smiles,measurement,value
"CCC=CCCC=CC=O [2,6-nonadienal]",modulation of off-notes of Monkfruit juice versus control,demonstrated a modulation of the off-notes
